Laboratory results taken from PubChem BioAssay (NCI).
Where “and” joins values, the source holds several entries; their conditions need not be identical. Equal values may be shown once.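 Cultured in 96-well plates, cells were exposed to test compound for 48 hours across five concentrations. GI50 marks 50% less growth. TGI marks complete inhibition of growth.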

Columns and labels:
Experiment in all cases: NCI-60 cell line screen, 48 h
EKVX NSCLC = system: EKVX NSCLC
HT29 colon = system: HT29 colon
NCI-H460 lung = system: NCI-H460 lung
NCI-H522 lung = system: NCI-H522 lung
NCI/ADR-RES ovarian = system: NCI/ADR-RES ovarian
SF-268 CNS = system: SF-268 CNS
SN12C renal = system: SN12C renal
TK-10 renal = system: TK-10 renal
UACC-257 melanoma = system: UACC-257 melanoma
UACC-62 melanoma = system: UACC-62 melanoma

SMILES: CSc1nsc(S/C=C\C(=O)c2ccc(C)cc2)n1
- GI50 (EKVX NSCLC): 22.5 µM
- TGI (EKVX NSCLC): 49.7 µM
- GI50 (HT29 colon): 19 µM
- TGI (HT29 colon): > 57.1 µM
- GI50 (NCI-H460 lung): 26.7 µM
- TGI (NCI-H460 lung): > 73.5 µM
- GI50 (NCI-H522 lung): 12.2 µM
- TGI (NCI-H522 lung): > 59.5 µM
- GI50 (NCI/ADR-RES ovarian): 25.8 µM
- TGI (NCI/ADR-RES ovarian): 67.7 µM
- GI50 (SF-268 CNS): 21.5 µM
- TGI (SF-268 CNS): > 58.5 µM
- GI50 (SN12C renal): 18.3 µM
- TGI (SN12C renal): 35.9 µM
- GI50 (TK-10 renal): 18.6 µM
- TGI (TK-10 renal): 33.7 µM
- GI50 (UACC-257 melanoma): 22.6 µM
- TGI (UACC-257 melanoma): 49.2 µM
- GI50 (UACC-62 melanoma): 18.5 µM
- TGI (UACC-62 melanoma): 38.2 µM

SMILES: CCCCNC(=O)Oc1ccc(/C(=C(/CC)Cc2ccccc2)c2ccc(OCCN3CCCCCC3)cc2)cc1
- GI50 (EKVX NSCLC): 76.8 µM
- TGI (EKVX NSCLC): > 100 µM
- GI50 (HT29 colon): 18.1 µM
- TGI (HT29 colon): 36.3 µM
- GI50 (NCI-H460 lung): 18.6 µM
- TGI (NCI-H460 lung): 33.8 µM
- GI50 (NCI-H522 lung): 20 µM
- TGI (NCI-H522 lung): 43.8 µM
- GI50 (NCI/ADR-RES ovarian): 42.1 µM
- TGI (NCI/ADR-RES ovarian): > 100 µM
- GI50 (SF-268 CNS): 59.8 µM
- TGI (SF-268 CNS): > 100 µM
- GI50 (SN12C renal): 29.6 µM
- TGI (SN12C renal): 83.6 µM
- GI50 (TK-10 renal): 26.7 µM
- TGI (TK-10 renal): 90.5 µM
- GI50 (UACC-257 melanoma): 19.8 µM
- TGI (UACC-257 melanoma): 40.2 µM
- GI50 (UACC-62 melanoma): 19.6 µM
- TGI (UACC-62 melanoma): 38 µM

SMILES: COC(=O)c1cc(-c2ccc(OC)cc2)[nH]c1N/N=C/c1c(Cl)cccc1Cl
- GI50 (EKVX NSCLC): 0.224 µM
- TGI (EKVX NSCLC): 3.23 µM
- GI50 (HT29 colon): 0.255 µM
- TGI (HT29 colon): 1.26 µM
- GI50 (NCI-H460 lung): 0.201 µM
- TGI (NCI-H460 lung): 0.992 µM
- GI50 (NCI-H522 lung): 0.0877 µM
- TGI (NCI-H522 lung): 0.491 µM
- GI50 (NCI/ADR-RES ovarian): 0.16 µM
- TGI (NCI/ADR-RES ovarian): 5.11 µM
- GI50 (SF-268 CNS): 0.203 µM
- TGI (SF-268 CNS): 10.4 µM
- GI50 (SN12C renal): 0.507 µM
- TGI (SN12C renal): 18.7 µM
- GI50 (TK-10 renal): 0.568 µM
- TGI (TK-10 renal): 13.8 µM
- GI50 (UACC-257 melanoma): 0.409 µM
- TGI (UACC-257 melanoma): 9.17 µM
- GI50 (UACC-62 melanoma): 0.205 µM
- TGI (UACC-62 melanoma): 16.8 µM

SMILES: CCCCCCNC(=O)n1cc(F)c(=O)[nH]c1=O
- GI50 (EKVX NSCLC): 21.1 µM
- TGI (EKVX NSCLC): > 100 µM
- GI50 (HT29 colon): 2.43 µM
- TGI (HT29 colon): 19.3 µM
- GI50 (NCI-H460 lung): 0.564 µM
- TGI (NCI-H460 lung): 17.7 µM
- GI50 (NCI-H522 lung): 10.7 µM
- TGI (NCI-H522 lung): 25 µM
- GI50 (NCI/ADR-RES ovarian): 12 µM
- TGI (NCI/ADR-RES ovarian): 92.5 µM
- GI50 (SF-268 CNS): 9.07 µM
- TGI (SF-268 CNS): 87.9 µM
- GI50 (SN12C renal): 4.29 µM
- TGI (SN12C renal): 24.3 µM
- GI50 (TK-10 renal): 4.71 µM
- TGI (TK-10 renal): 22.7 µM
- GI50 (UACC-257 melanoma): 4.22 µM
- TGI (UACC-257 melanoma): 26.4 µM
- GI50 (UACC-62 melanoma): 2.8 µM
- TGI (UACC-62 melanoma): 25 µM

SMILES: Oc1c(CN2CCCC2)cc(CSCc2ccccc2)c2cccnc12
- GI50 (EKVX NSCLC): 1.99 µM
- TGI (EKVX NSCLC): 11.9 µM
- GI50 (HT29 colon): 3.88 µM
- TGI (HT29 colon): 14 µM
- GI50 (NCI-H460 lung): 0.498 µM
- TGI (NCI-H460 lung): 2.83 µM
- GI50 (NCI-H522 lung): 1.14 µM
- TGI (NCI-H522 lung): 3.77 µM
- GI50 (NCI/ADR-RES ovarian): 0.0989 µM
- TGI (NCI/ADR-RES ovarian): 0.807 µM
- GI50 (SF-268 CNS): 0.752 µM
- TGI (SF-268 CNS): 14.9 µM
- GI50 (SN12C renal): 1.69 µM
- TGI (SN12C renal): 13.5 µM
- GI50 (TK-10 renal): 0.775 µM
- TGI (TK-10 renal): 13.1 µM
- GI50 (UACC-257 melanoma): 2.14 µM
- TGI (UACC-257 melanoma): 7.03 µM
- GI50 (UACC-62 melanoma): 0.363 µM
- TGI (UACC-62 melanoma): 2.29 µM

SMILES: COC(=O)C(=O)C(C(=O)C(N)=O)c1nc2ccc(C(=O)c3ccccc3)cc2[nH]c1=O (centres undefined)
- TGI (EKVX NSCLC): > 100 µM
- TGI (HT29 colon): > 100 µM
- TGI (NCI-H460 lung): > 100 µM
- TGI (NCI-H522 lung): > 100 µM
- TGI (NCI/ADR-RES ovarian): > 100 µM
- TGI (SF-268 CNS): > 100 µM
- TGI (SN12C renal): > 100 µM
- TGI (TK-10 renal): > 100 µM
- TGI (UACC-257 melanoma): > 100 µM
- TGI (UACC-62 melanoma): > 100 µM

SMILES: COc1cc(/C=C2\CN(C(=O)CCN3CCC(=NO)CC3)C/C(=C\c3cc(OC)c(OC)c(OC)c3)C2=O)cc(OC)c1OC
- GI50 (EKVX NSCLC): 1.82 µM
- TGI (EKVX NSCLC): 4.81 µM
- GI50 (HT29 colon): 0.369 µM
- TGI (HT29 colon): 1.51 µM
- GI50 (NCI-H460 lung): 0.282 µM
- TGI (NCI-H460 lung): 0.847 µM
- GI50 (NCI-H522 lung): 0.323 µM
- TGI (NCI-H522 lung): 1.34 µM
- GI50 (NCI/ADR-RES ovarian): 2.71 µM
- TGI (NCI/ADR-RES ovarian): > 100 µM
- GI50 (SF-268 CNS): 0.535 µM
- TGI (SF-268 CNS): 1.95 µM
- GI50 (SN12C renal): 0.241 µM
- TGI (SN12C renal): 0.695 µM
- GI50 (TK-10 renal): 1.18 µM
- TGI (TK-10 renal): 2.8 µM
- GI50 (UACC-257 melanoma): 0.51 µM
- TGI (UACC-257 melanoma): 2.44 µM
- GI50 (UACC-62 melanoma): 0.182 µM
- TGI (UACC-62 melanoma): 0.411 µM

SMILES: Cc1cnc(Nc2ccc(OCCN3CCCC3)cc2)nc1Nc1cccc(S(=O)(=O)NC(C)(C)C)c1
- TGI (EKVX NSCLC): 12.9 µM and > 10 µM
- GI50 (HT29 colon): 0.0973 µM and 0.564 µM
- TGI (HT29 colon): 2.28 µM and 5.12 µM
- GI50 (NCI-H460 lung): 0.228 µM and 1.09 µM
- TGI (NCI-H460 lung): 7.28 µM and > 10 µM
- GI50 (NCI-H522 lung): 0.053 µM and 0.371 µM
- TGI (NCI-H522 lung): 1.35 µM and 3.15 µM
- GI50 (NCI/ADR-RES ovarian): 7.01 µM and > 7.11 µM
- TGI (NCI/ADR-RES ovarian): 26.6 µM and > 10 µM
- GI50 (SF-268 CNS): 1.69 µM and 1.67 µM
- TGI (SF-268 CNS): 7.52 µM and > 8.99 µM
- GI50 (SN12C renal): 0.128 µM and 0.98 µM
- TGI (SN12C renal): 9.51 µM and > 9.64 µM
- GI50 (TK-10 renal): 0.149 µM and 0.424 µM
- TGI (TK-10 renal): 3.7 µM and 1.85 µM
- GI50 (UACC-257 melanoma): 1.28 µM and 3.99 µM
- TGI (UACC-257 melanoma): 2.83 µM and > 10 µM
- GI50 (UACC-62 melanoma): 0.491 µM and 1.92 µM
- TGI (UACC-62 melanoma): 8.14 µM and > 10 µM

SMILES: O=C1C(Cl)=C(c2ccc([N+](=O)[O-])cc2)C(=O)c2c(O)cccc21
- TGI (EKVX NSCLC): 33.4 µM
- TGI (HT29 colon): 7.37 µM
- TGI (NCI-H460 lung): 6.99 µM
- TGI (NCI-H522 lung): 0.545 µM
- TGI (NCI/ADR-RES ovarian): 17.1 µM
- TGI (SF-268 CNS): 22.4 µM
- TGI (SN12C renal): 10.7 µM
- TGI (TK-10 renal): 10.7 µM
- TGI (UACC-257 melanoma): 4.84 µM
- TGI (UACC-62 melanoma): 1.98 µM

SMILES: COc1cc(/C=C2\CC3C4CC=C5C[C@@H](O)CC[C@]5(C)C4CC[C@]3(C)C2=O)ccc1OCCCn1ccnc1 (some centres undefined)
- GI50 (EKVX NSCLC): 17 µM
- TGI (EKVX NSCLC): 47.4 µM
- GI50 (HT29 colon): 13.7 µM
- TGI (HT29 colon): > 100 µM
- GI50 (NCI-H460 lung): 18.6 µM
- TGI (NCI-H460 lung): 44 µM
- GI50 (NCI-H522 lung): 17.1 µM
- TGI (NCI-H522 lung): 37.3 µM
- GI50 (NCI/ADR-RES ovarian): 15.4 µM
- TGI (NCI/ADR-RES ovarian): 31.7 µM
- GI50 (SF-268 CNS): 18.2 µM
- TGI (SF-268 CNS): 40.2 µM
- GI50 (SN12C renal): 17 µM
- TGI (SN12C renal): 33.7 µM
- GI50 (TK-10 renal): 20.4 µM
- TGI (TK-10 renal): 35.9 µM
- GI50 (UACC-257 melanoma): 15.8 µM
- TGI (UACC-257 melanoma): 35.3 µM
- GI50 (UACC-62 melanoma): 17.3 µM
- TGI (UACC-62 melanoma): 35.3 µM

SMILES: Nc1cc2[nH]cnc2c(=O)[nH]1
- TGI (EKVX NSCLC): > 300 µM
- TGI (HT29 colon): > 300 µM
- TGI (NCI-H460 lung): > 300 µM
- TGI (NCI-H522 lung): > 215 µM
- TGI (NCI/ADR-RES ovarian): > 300 µM
- TGI (SF-268 CNS): > 300 µM
- TGI (SN12C renal): > 300 µM
- TGI (TK-10 renal): > 300 µM
- TGI (UACC-257 melanoma): > 300 µM
- TGI (UACC-62 melanoma): > 300 µM

SMILES: CCC[CH2][Sn]1([CH2]CCC)[O]C(=O)c2ccc(N)cc2[O]1
- GI50 (EKVX NSCLC): 0.285 µM
- TGI (EKVX NSCLC): 2.47 µM
- GI50 (HT29 colon): 1.33 µM
- TGI (HT29 colon): 2.73 µM
- GI50 (NCI-H460 lung): 1.73 µM
- TGI (NCI-H460 lung): 4.21 µM
- GI50 (NCI-H522 lung): 0.048 µM
- TGI (NCI-H522 lung): 0.179 µM
- GI50 (NCI/ADR-RES ovarian): 1.76 µM
- TGI (NCI/ADR-RES ovarian): 4.12 µM
- GI50 (SF-268 CNS): 0.259 µM
- TGI (SF-268 CNS): 1.5 µM
- GI50 (SN12C renal): 0.88 µM
- TGI (SN12C renal): 2.37 µM
- GI50 (TK-10 renal): 0.528 µM
- TGI (TK-10 renal): 1.69 µM
- GI50 (UACC-257 melanoma): 0.548 µM
- TGI (UACC-257 melanoma): 2.11 µM
- GI50 (UACC-62 melanoma): 0.364 µM
- TGI (UACC-62 melanoma): 1.83 µM
